According to patent US20220168472A1, “ENZYME-DEGRADABLE HYDROGEL FOR DELIVERY OF A PAYLOAD” (priority 2019, published 2022):

Legend:
[1] = tested on: human corneal epithelial cells (HCEpCs); assay: PDMS stencil wound assay, HCEpCs, bolus HA or MMP-9; assay type: cell-based; settings: for increase of wound healing rate: 0.1-0.6 mg/mL
Description: HCEpCs were cultured in a T-25 flask with keratinocyte serum-free media supplemented with keratinocyte growth serum and penicillin/streptomycin (KM; Sciencell) that was changed every other day. The SV-40 immortalized HCEpCs were generously donated from a collaborator (for example, see: F. Li, M. Griffith, Z. Li, S. Tanodekaew, H. Sheardown, M. Hakim, and D. J. Carlsson, “Recruitment of multiple cell lines by collagen-synthetic copolymer matrices in corneal regeneration,” Biomaterials, vol. 26, no. 16, pp. 3093-3104, 2005 Jun. 1, doi: https://doi.org/10.1016/j.biomaterials.2004.07.063; and/or M. Griffith, R. Osborne, R. Munger, X. Xiong, C. J. Doillon, N. L. C. Laycock, M. Hakim, Y. Song, and M. A. Watsky, “Functional Human Corneal Equivalents Constructed from Cell Lines,” Science, vol. 286, no. 5447, pp. 2169-2172, 1999, doi: 10.1126/science.286.5447.2169, the entire contents of which are incorporated herein by reference). Once confluence was reached, the HCEpCs were passaged in 2 ml of TrypLE Express (GIBCO, Life Technologies, Thermo Scientific) and subcultured for the wound assay as described previously. The HCEpCs were cultured with KM until a monolayer had formed. Wound assays were conducted as described above for RCEpCs. The well was then rinsed with PBS and replaced with KM. Images were taken daily to observe the closure of the wound and graphs were generated using GraphPad Prism 6.
(§1) To validate the wound assays 200 kDa hyaluronic acid (151-300 kDa HA; Lifecore Biomedicals) were added to the media of both RCEpC and HCEpC PDMS wound assays. Once the wound assays were validated, the efficacy of medium sized 60 kDa HA (66-99 kDa; Lifecore Biomedicals) was investigated. Various concentrations of 60 kDa HA were dissolved in KM and added as a bolus dosage to HCEpC wound assays. The media was changed daily until full closure of the wound. Images were taken daily to observe the closure of the wound and graphs were generated using GraphPad Prism 6.
(§2) To verify if the wound assay could provide a consistent initial wound area to two different corneal epithelial cell types, 1 mm diameter PDMS wound assays were performed with both rabbit corneal epithelial cells (RCEpCs; FIG. 20A) and human corneal epithelial cells (HCEpCs; FIG. 20B). Primary RCEpCs were initially used as they would behave similar to future in vivo rabbit studies. Healing of the wound varied between the two cell-types, with the primary RCEpC wound healing within 2 days and the HCEpC wound healing in 7 days (FIG. 20C). […] The improvement was narrowed to 21% (95.9%±6.9% wound closure) at 18.5 hours, compared to the control (74.9%±9.0%). […] HA was confirmed to be a potential drug due to its consistency among cell types, rapid ability to heal wounds, low minimum effective concentration, and cost efficiency.
Most literature assesses the effects of native high molecular weight HA and oligomer HA on epithelial wound healing. To obtain an ideal MMP-9 controlled release profile, the influence of mid-size 60 kDa HA on corneal wound healing was investigated. PDMS-stencil wound assays were conducted using 0.05, 0.1, 0.3, 0.6, or 1.0 mg/ml of 60 kDa HA treatments daily (FIG. 21A). A 250 ng/ml MMP-9 sample was included to observe the effects of the enzyme on wound healing, similar to an in vivo environment.

[2] = tested on: rabbit corneal epithelial cells (RCEpCs); assay: PDMS stencil wound assay, RCEpCs, bolus HA; assay type: cell-based
Description: Primary rabbit corneal epithelial cells (Cell Biologics Inc.) were cultured using a T-25 flask in epithelial cell media supplemented with insulin-transferrin-selenium, epidermal growth factor, L-glutamine, antibiotic-antimycotic solution and fetal bovine serum (Cell Biologics Inc.). Once confluence was reached, the RCEpCs were briefly rinsed with PBS and passaged with trypsin-EDTA (GIBCO, Thermo Scientific). The cells were then sub-cultured on a 24-well plate surface pre-coated with a gelatin-based coating (Cell Biologics Inc.) containing a thin, punched out poly-dimethyl siloxane (PDMS) stencil adhered to the surface. The media was changed daily until a cell monolayer was formed. The PDMS disk stencil was then carefully removed from the surface. The well was then rinsed with PBS and replaced with epithelial cell media. Images were taken daily to observe the closure of the wound and graphs were generated using GraphPad Prism 6.
as §1, §2

Substance | increase of wound healing rate ([1]; 60 hours) | increase of wound healing rate ([1]; first 24 hours) | wound healing compared to the control ([1]; 0.3, 0.6, and 0.05 mg/ml daily) | wound healing compared to the control ([1]; the other HA samples (of 0.05, 0.1, 0.3, 0.6, 1.0 mg/ml) daily) | improvement in wound healing relative to the control ([2]; 0.45 mg/ml HA, 4 hours) | wound closure ([2]; 0.45 mg/ml HA, 4 hours) | improvement in wound healing relative to the control ([2]; 0.45 mg/ml HA, 18.5 hours) | wound closure ([2]; 0.45 mg/ml HA, 18.5 hours) | improvement in wound healing relative to the control ([2]; 0.75 mg/ml HA, 12 hours) | wound closure ([2]; 0.75 mg/ml HA, 12 hours) | improvement in wound healing relative to the control ([1]; 0.45 mg/ml HA, 33 hours) | wound closure ([1]; 0.45 mg/ml HA, 33 hours) | improvement in wound healing relative to the control ([1]; 0.45 mg/ml HA, 59.5 hours) | wound closure ([1]; 0.45 mg/ml HA, 59.5 hours) | improvement in wound healing relative to the control ([1]; 0.75 mg/ml HA, 18.5 hours) | wound closure ([1]; 0.75 mg/ml HA, 18.5 hours) | improvement in wound healing relative to the control ([1]; 0.75 mg/ml HA, 59.5 hours) | wound closure ([1]; 0.75 mg/ml HA, 59.5 hours)
hyaluronic acid [60 kDa HA] | 24% | 40% | healed rapidly | slowed wound healing compared to the control |  |  |  |  |  |  |  |  |  |  |  |  |  | 
hyaluronic acid [HA] |  |  |  |  | 149% | 36.4%±14.6% | 21% | 95.9%±6.9% | 35% | 64.9%±13.6% | 31% | 42.8%±7.2% | 19% | 81.8%±7.6% | 58% | 27.5%±7.1% | 26% | 86.5%±4.2%
